The target in test [1] is T1, viral reverse transcriptase (Human immunodeficiency virus type 1 group M subtype B, UniProt P04585).
T1 construct: Viral reverse transcriptase is found in extracts from bacterial clones; made in house; host or cells: Escherichia coli (extracts of bacterial clones, by the procedure of Larder et al., EMBO J. 6:3133-3137, 1987)
Kind of test: Viral reverse transcriptase inhibition, cell free assay. The format is biochemical, human immunodeficiency virus (HIV-1). The note with it: poly rC or poly rG template; for inhibition at 100 µM: read-out: RT % INHIBITION (100 μM), 100 μM. The text has this: The utility of the diaromatic substituted piperazines (III), the anti-AIDS piperazines (IV) and the indoles (V) of this invention can be determined by their ability to inhibit viral reverse transcriptase, an enzyme essential for human immunodeficiency virus replication. This enzyme has characteristics which differentiate it from other known cellular polymerases and it is a unique enzyme which is not found in uninfected cells. Viral reverse transcriptase is found in extracts from bacterial clones prepared according to the procedure described in AIDS Virus Reverse Transcriptase defined by high level expression in Escherichia coli, EMBO J. 6:3133-3137 (1987). Inhibition of this enzyme is determined in a cell free assay which measures the level of radioactive precursors incorporated into DNA. Extracts prepared according to the procedure of Science, 1125-1129 (1981) are incubated in a mixture of inhibitor, 20 mM dithiothreitol, 60 mM sodium chloride, 0.05% NP-40, 10 mM magnesium chloride, 50 mM Tris pH 8.3, 10 μM [^35 S]-labeled deoxynuleoside-5'-triphosphate, 10 μg/ml RNA template (poly rC or poly rG) and 5 μg/ml DNA primer (oligo dG or oligo dT) for 30 minutes at 37° C. Incorporation of radio-labeled percursor is determined by spotting aliquots of the reaction mixture on DE81 paper, washing the papers to remove unincorporated percursor, drying and determining counts. The results (IC50 means the concentration, in μM of drug, required to inhibit the reverse transcriptase activity to the extent of 50%) of various assay(s) are combined and reported as % inhibition and IC50 (calculated).
^1 Viral reverse transcriptase is found in extracts from bacterial
clones prepared according to the procedure described by Larder, B.,
Purifoy D., Powell, K. and Darby, G., AIDS virus reverse transcriptase
defined by high level expression in Escherichia coli., EMBO J. 6,
3133-3137 (1987). Inhibition of this enzyme is determined in a cell free
assay which measures the level of radioactive precursors incorporated int
DNA. Extracts prepared according to the procedure of Kleid, D. G., et
al., Science, 1125-1129 (1981) are incubated in a mixture of inhibitor, 2
mM dithiothreitol, 60 mM sodium chloride, 0.05% NP40, 10 mM magnesium
chloride, 50 mM Tris pH 8.3, 10 μM [^35 Slabeled
deoxynucleoside5triphosphate, 10 μg/ml RNA template (poly rC or poly
rG) and 5 μg/ml DNA primer (oligo dG or oligo dT) for 15 minutes at
37°. Incorporation of radio labeled precursor is determined by
harvesting the trichloroacetic acid precipitated reaction mixtures on
glass fiber filters, drying, and determining counts. The results of
various assays are combined and reported as % inhibition at a 100 μM

For test [2], the system named is HIV in primary human peripheral blood lymphocytes. The test can be described thus: Primary PBL assay: inhibition of viral replication (p24 & RNA). The format is cell-based. The note with it: primary human lymphocytes infected with HIV, days three and four, read-out: PBL INHIBITION OF VIRAL REPLICATION (p24 & RNA) ED50. As to the method:
^3 The utility of the compounds of the invention is further
infection in primary peripheral blood lymphocytes (primary PBL assay). Th
primary PBL assay offers the following advantages:
(a) The assays are performed with primary human lymphocytes. Thereby,
undesired testing of transformed cell lines is avoided in which host cell
and virus may have undergone processes of mutual adaptation. Performance
of cell culture in serum containing media closely mimics the in vivo
situation. (b) The primary PBL assay distinguishes between true antiviral
effect which is due to the drug and cytostatic/cytotoxic reactions. (c)
Viral replication is precisely followed by kinetic measurement of viral
nucleic acids and proteins. (d) Nucleic acids (total HIVRNA intra and
extracellular) and protein (secreted p24) are measured in parallel which
permits one to differentiate between the compound's effect on virus
replication and on the expression of viral proteins. This leads to
additional information regarding the efficacy of the test compound. (e)
Tolerance of the cell culture against low amounts of organic solvents als
permits the investigation of hydrophobic substances. (f) The dose of the
drug causing half maximal suppression of virus replication is determined.
(g) The screening system is standardized and automated to a high degree.
The primary PBL assay uses the following procedure:
Effects of the compounds of the invention on cell proliferation are determined by lymphocyte proliferation assays. Starting with a 100 micromolar solution, the compound is serially diluted 10 fold. One tenth of the concentration of a compound causing half maximal inhibition of cellular proliferation is employed for all subsequent testing.
Peripheral human lymphocytes are isolated by density gradient centrifugation. After stimulation by mitogen the cells are infected with a standardized preparation of HIV. Subsequently, the infected cells are cultured in the presence of the drug for four days. Individual cultures are established to measure viral replication three and four days following infection. Untreated cells and AZT-treated cells are included as controls in parallel with the drugs under investigation.
The amount of viral core protein p24 synthesized and release by the infected cells is determined in the supernatant by the capture-ELISA technique on days three and four. By comparing with a standard preparation, the amount of protein produced by the virus infected cells is quantified.
The total amount of viral RNA synthesized by the infected lymphocytes is determined by a special nucleic acid hybridization on days three and four of culture. By including a standard preparation of HIV-RNA the amount of synthesized RNA is quantified.
In addition, viability of HIV-infected cells is determined in parallel with assays for viral p24 and RNA. In order to evaluate the half maximal antiviral effect of the drug, a concentration dependency of the drug action is measured.
Numerous examples of the compounds of the invention are assayed according to this procedure. The anti-HIV activity, as measured by the inhibition of the release of core p24 protein in HIV infected human lymphocytes, is used to calculate ED50 -antiviral (the concentration required to give a 50% reduction in p24 synthesis).

Where [3] appears, read: Human immunodeficiency virus 1, Lymphocyte.

The structures appear in SMILES notation. Structures can show the parent of a compound that is named as a salt. Where two headings read alike, the source gives them in different places.

As a reminder, the inhibition is the relative decrease from the control value, in per cent. Regarding `CCNc1cccnc1N1CCN(C(=O)c2cc3cc(OC)ccc3[nH]2)CC1` [Example 16, 1-[5-Methoxyindolyl-2-carbonyl]-4-[3-(ethylamino)-2-pyridinyl]piperazine], the inhibition at 100 µM in test [1] fell in the range of 85 to 88%. In addition, the EC50 in test [2] turned out to be 3 nM.
With `O=C(c1cc2cc(F)ccc2[nH]1)N1CCN(c2ncccc2NCC(F)(F)F)CC1` [Example 34, 1-[5-Fluoroindolyl-2-carbonyl]-4-[3-(2,2,2-trifluoroethylamino)-2-pyridinyl]piperazine], the inhibition at 100 µM in test [1] amounted to 41%. The EC50 in test [2] (setting [3]) is below 10000 nM.
The matching figures for `CC(C)Nc1cccnc1N1CCN(C(=O)c2cc3cc(OCc4ccccc4)ccc3[nH]2)CC1` [Example 36, 1-[5-Benzyloxyindolyl-2-carbonyl]-4-[3-(1-methylethyl)amino-2-pyridinyl]piperazine]: 69 to 84% and 10 nM.
Consider `CC(C)Nc1cccnc1N1CCN(C(=O)c2cc3cc(O)ccc3[nH]2)CC1` [Example 38, 1-[5-Hydroxyindolyl-2-carbonyl]-4-[3-(1-methylethylamino)-2-pyridinyl]piperazine], for which, in test [1], the inhibition at 100 µM lay within 96 to 98%. In addition, the EC50 in test [2] (setting [3]) is below 1 nM.
As to `CC(C)Nc1nccnc1N1CCN(C(=O)c2cc3cc(F)ccc3[nH]2)CC1` [Example 47, 1-(5-Fluoroindolyl-2-carbonyl)-4-[3-(1-methylethylamino)-2-pyrazinyl]piperazine], the inhibition at 100 µM in test [1] is 91%. Besides, in test [2] (setting [3]), the EC50 fell in the range of 1 to 10 nM.
For `CC(C)Nc1cncnc1N1CCN(C(=O)c2cc3cc(F)ccc3[nH]2)CC1` [Example 48, 1-(5-Fluoroindolyl-2-carbonyl)-4-[5-(1-methylethylamino)-4-pyrimidinyl]piperazine], the inhibition at 100 µM in test [1] lay in the range of 63 to 92%. The EC50 in test [2] (setting [3]) lay in the range of 10 to 100 nM.
The matching figures for `CC(C)Nc1ccnnc1N1CCN(C(=O)c2cc3ccccc3[nH]2)CC1` [Example 49, 1-(Indolyl-2-carbonyl)-4-[4-(1-methylethylamino)-3-pyridazinyl]piperazine, methane sulfonate]: 84 to 94% and at most 100 nM.
The corresponding values for `CC(C)Nc1ccnnc1N1CCN(C(=O)c2cc3cc(F)ccc3[nH]2)CC1` [Example 50, 1-(5-Fluoroindolyl-2-carbonyl)-4-[4-(1-methylethyl)amino)-3-pyridazinyl]piperazine, methane sulfonate] are 84 to 97% and 100 nM.
The matching figures for `CC(C)Nc1cccnc1N(C)CCN(C)C(=O)c1cc2ccccc2[nH]1` [Example 52, N,N'-Dimethyl-N-(indolyl-2-carbonyl)-N'-(3-(1-methylethylamino)pyrid-2-yl)ethylenediamine]: 89 to 94% and 100 to 1000 nM.
For `CC(C)Nc1cccnc1N(C)CCCN(C)C(=O)c1cc2ccccc2[nH]1` [Example 53, N,N'-Dimethyl-N-(indolyl-2-carbonyl)-N'-[3-(1-methylethyl-amino)-2-pyridyl]-1,3-propanediamine], the inhibition at 100 µM in test [1] was in the range of 82 to 94%. Besides, the EC50 in test [2] (setting [3]) lay within 1 to 10 nM.
With `CC(C)Nc1cccnc1N(C)CCCCCCN(C)C(=O)c1cc2ccccc2[nH]1` [Example 54, N,N'-Dimethyl-N-(indolyl-2-carbonyl)-N'-[3-(1-methylethyl-amino)-2-pyridinyl]-1,6-hexanediamine], the inhibition at 100 µM in test [1] lay within 70 to 80%. In addition, the EC50 in test [2] (setting [3]) was 100 nM.
Consider `CC(C)Nc1cccnc1N(C)CCOC(=O)c1cc2ccccc2[nH]1` [Example 55], for which the inhibition at 100 µM in test [1] lay in the range of 66 to 79%. The EC50 in test [2] (setting [3]) was 100 to 1000 nM.
The matching figures for `O=C(c1cc2ccccc2[nH]1)N1CCN(c2ncccc2NC2CCCC2)CC1` [Example 56, 1-(Indolyl-2-carbonyl)-4-(3-cyclopentylamino-2-pyridinyl)piperazine]: 79 to 93% and 100 to 1000 nM.
The matching figures for `CC(C)Nc1cccnc1OCCN(C)C(=O)c1cc2ccccc2[nH]1` [Example 58, 2-(2-(N-Methyl-N-(indolyl-2-carbonyl)amino)ethoxy)-3-(1-methylethylamino)pyridine]: 94 to 98% and below 100 nM.
The matching figures for `CCOC(=O)COc1ccc2[nH]c(C(=O)N3CCN(c4ncccc4NC(C)C)CC3)cc2c1` [Example 60, 1-[5-(Ethoxycarbonylmethoxy)indolyl-2-carbonyl]-4-[3-(1-methylethylamino)-2-pyridinyl]piperazine]: 89 to 92% and 100 to 1000 nM.
Regarding `CC(C)Nc1cccnc1N1CCN(C(=O)c2cc3cc(OCC(=O)O)ccc3[nH]2)CC1` [Example 61, sodium salt], the inhibition at 100 µM in test [1] was found to be 91%. In addition, the EC50 in test [2] (setting [3]) was determined as 1000 nM.
Regarding `CC(C)Nc1cccnc1N1CCN(C(=O)c2nc3ccccc3[nH]2)CC1` [Example 62], in test [1] (100 μM), the “RT % INHIBITION (100 μM)” value is listed as 64-78%. Moreover, the EC50 in test [2] fell in the range of 1000 to 10000 nM.
Regarding `CNc1cccnc1N1CCN(C(=O)c2cc3cc(F)ccc3[nH]2)CC1` [Example 63, 1-(5-Fluoroindolyl-2-carbonyl)-4-[3-methylamino-2-pyridinyl]piperazine], the inhibition at 100 µM in test [1] was 82 to 88%. For the same molecule, the EC50 in test [2] (setting [3]) turned out to be 1000 nM.
The matching figures for `CNc1cccnc1N1CCN(C(=O)c2cc3cc(OC)ccc3[nH]2)CC1` [Example 64, 1-(5-Methoxyindolyl-2-carbonyl)-4-[3-(methylamino)-2-pyridinyl]piperazine]: 88 to 94% and at most 1000 nM.
In the case of `CNc1cccnc1N1CCN(C(=O)c2cc3ccccc3[nH]2)CC1` [Example 65, 1-(Indolyl-2-carbonyl)-4-[3-(methylamino)-2-pyridinyl]piperazine], the inhibition at 100 µM in test [1] lay in the range of 81 to 93%. Besides, the EC50 in test [2] (setting [3]) was at most 1 nM.
The corresponding values for `CC(C)Nc1cccnc1N1CCN(C(=O)c2ccc[nH]2)CC1` [Example 69, 1-[Pyrrolyl-2-carbonyl]-4-[3-(1-methylethylamino)-2-pyridinyl]piperazine] are 95% and 100 nM.

For the origin of these results see patent US5563142A, “Diaromatic substituted compounds as anti-HIV-1 agents” (The Upjohn Company, priority 1994, dated 1996).
